Earlier results, collected in patent US20060172006A1, “Sustained-release tramadol formulations with 24-hour clinical efficacy” (priority 2003, published 2006).
Where a name gives a salt, the structure may show the parent alone.

Conditions: human, in vivo

COc1cccc(C2(O)CCCCC2CN(C)C)c1 (stereo not shown) [tramadol HCl, Tramadol hydrochloride]
Estimated incidence of seizures in patients: less than 1%
